Source: US10717753B2, “Deuterium-modified brigatinib derivatives, pharmaceutical compositions comprising same, and use thereof” (Chia Tai Tianqing Pharmaceutical Group Co., Ltd., priority 2015, dated 2020)

Assays:
[1] = test system: human lung cancer cell NCI-H3122; assay: Inhibition of proliferation in vitro, SRB method; assay type: cell-based; details: NCI-H3122 cells expressing EML4-ALK fusion protein, 72 hours, mean±standard deviation
Experimental: 1.1 Cells: human lung cancer cell line NCl—H3122, expressing EML4-ALK fusion protein.
1.2 Main reagents: sulfonyl rhodamine B, RPMI-1640 liquid medium, dimethyl sulfoxide (DMSO), trichloromethane (chloroform).
1.3 Instruments: Varioskan Flash microplate reader.
1.4 Solution preparation: an appropriate amount of a series of test compounds was taken and dissolved using 5% chloroform+95% DMSO, to form a stock solution of 20 mM, which was stored at −20° C. in aliquots. The positive drug Crizotinib was taken and dissolved using 5% chloroform+95% DMSO, and the stock solution was diluted with fresh medium to a working concentration before use. 95 μl DMSO and 5 μl chloroform were taken, mixed together, and diluted with fresh medium to a working concentration before use.
The tumor cell line used in tests was cultured in RPM11640 medium containing 10% inactivated Hyclone serum or fetal bovine serum, 100 IU/mL penicillin and 100 IU/mL streptomycin, in a 5% CO2 incubator at 37° C. NCl—H3122 cells were inoculated into a 96-well plate at 5000/well. It was ensured that the cells were in logarithmic growth phase during the whole test.
Groups of series of test compounds, negative control and Crizotinib (positive control) were set up in this test. For each test compound group, 6 concentration gradients by 3-fold serial dilution were set, and three wells were for each concentration. For positive control group, 6 concentration gradients by 3-fold serial dilution were set, and three wells were for each concentration. Negative control was 5% chloroform+95% DMSO (the same concentration as that of test compound at 100 nM), and 6 wells were set.
After the cells were treated with the drugs for 72 hours, the culture medium was discarded. A pre-chilled 10% trichloroacetic acid (TCA) solution was added into each well to fix the cells and the plate was placed in a refrigerator at 4° C. to fix. Each well of the plate was washed with deionized water for 5 times to remove trichloroacetic acid solution. After being dried in air, each well was added with SRB solution (4 mg/ml) prepared with 1% acetic acid and then kept for 20 minutes at room temperature. After the liquid was discarded, each well was washed with 1% acetic acid for 5 times to remove uncombined SRB dye, and then dried in air. An appropriate volume of 10 mM Tris-base (trimethylolamine methane) solution at pH 10.5 was added into each well to dissolve the cells. The plate was shaken on a plate shaker for 10 minutes. The absorbance (OD) value was measured at a wavelength of 490 nm in a microplate reader.
According to the OD values measured by microplate reader, an inhibition rate was calculated as the following formula: Survival rate (%)=OD of drug well/OD of control well×100%,
If the survival rate was ≥100%, it was recorded as 100%.
Using Calcusyn software, IC50 was calculated, and mean and standard deviation thereof were calculated, and the data was expressed as: mean±standard deviation.

[2] = Stability in monkey liver microsomes in vitro; assay type: in vitro ADME; details: for half-life at 0.01 μmol/L: monkey liver microsomes 0.5 mg/mL protein, NADPH, 37° C., 1 μmol/L test compound; for half-life period compared to the original drug Brigatinib: monkey liver microsomes, statement in words; for Prolonging rates: prolongation of t1/2 in monkey liver microsomes versus Brigatinib
Experimental: 300 μL of a final incubation system contains 30 μL of monkey liver microsomes (protein concentration: 0.5 mg/mL, American BD Company), 30 μL of NADPH+MgCl2, 3 μL of a substrate (a solution of 1 μmol/L test compound in acetonitrile) and 237 μL of PBS buffer solution. The above incubation system was made in duplicate, each of 0.3 mL.
For each sample, an evenly mixed solution of the substrate and enzyme with a total volume of 270 μL was first prepared, and after pre-incubation at 37° C. for 5 min, 30 μL of NADPH+MgCl2 was added and mixed. 40 μL of the reaction solution was taken respectively at 0, 15, 30, 60 and 90 min, and the reaction was stopped by 300 μL of ice-cold acetonitrile containing an internal standard. In addition, three blanks (KB) were set, each of 300 μL (KB1: no NADPH; KB2: no substrate; KB3: no enzyme).
40 μL of the incubation sample was pipetted out, added with 400 μL of ice-cold acetonitrile containing an internal standard, vortexed for 5 min and centrifuged (13000 rpm, 4° C.) for 10 min. 80 μL of the supernatant was pipetted out in a loading plate, and then 80 μL of 50% acetonitrile aqueous solution was added to the plate and mixed. 1 μL of the mixture was pipetted out for LC/MS/MS assay and the chromatogram was recorded.

Row | SMILES | IC50 [1] | half-life at 0.01 μmol/L [2] | half-life period compared to the original drug Brigatinib [2] | Prolonging rates [2]
1 | COc1cc(N2CCC(N3CCN(C)CC3)CC2)ccc1Nc1ncc(Cl)c(Nc2ccccc2P(C)(C)=O)n1 [Brigatinib, 5-chloro-N^4-[2-(dimethylphosphonyl)phenyl]-N^2-{2-methoxy-4-[4-(4-methylpiperazin-1-yl)piperidin-1-yl]phenyl}pyrimidine-2,4-diamine] | 13.3 ± 1.6 nM | 2.83 h | – | –
2 | [2H]C([2H])([2H])Oc1cc(N2CCC(N3CCN(C)CC3)CC2)ccc1Nc1ncc(Cl)c(Nc2ccccc2P(C)(C)=O)n1 [Compound I-1, (2-((5-chloro-2-((2-[D3]methoxy-4-(4-(4-methylpiperazin-1-yl)piperidin-1-yl)phenyl)amino)pyrimidin-4-yl)amino)phenyl)dimethyl phosphorus oxide] | 10 ± 1.05 nM | 3.82 h | significantly prolong the half-life period | 35%
3 | [2H]C([2H])([2H])N1CCN(C2CCN(c3ccc(Nc4ncc(Cl)c(Nc5ccccc5P(C)(C)=O)n4)c(OC)c3)CC2)CC1 [Compound I-2, (2-((5-chloro-2-((2-methoxy-4-(4-(4-[D3]methylpiperazin-1-yl)piperidin-1-yl)phenyl)amino)pyrimidin-4-yl)amino)phenyl)dimethyl phosphorus oxide] | 9.45 ± 1.79 nM | 3.93 h | significantly prolong the half-life period | 39%
4 | [2H]C([2H])([2H])Oc1cc(N2CCC(N3CCN(C([2H])([2H])[2H])CC3)CC2)ccc1Nc1ncc(Cl)c(Nc2ccccc2P(C)(C)=O)n1 [Compound I-3, (2-((5-chloro-2-((2-[D3]methoxy-4-(4-(4-[D3]methylpiperazin-1-yl)piperidin-1-yl)phenyl)amino)pyrimidin-4-yl)amino)phenyl)dimethyl phosphorus oxide] | 12.7 ± 2.37 nM | 3.32 h | – | 17%
5 | [2H]C1([2H])CN(C)CC([2H])([2H])N1C1CCN(c2ccc(Nc3ncc(Cl)c(Nc4ccccc4P(C)(C)=O)n3)c(OC)c2)CC1 [Compound I-4, (2-((5-chloro-2-((2-methoxy-4-(4-(4-methyl[2,2,6,6-D4]piperazin-1-yl)piperidine-1-yl)phenyl)amino)pyrimidin-4-yl)amino)phenyl)dimethyl phosphorus oxide] | 11.1 ± 2.07 nM | 2.93 h | – | 4%
6 | [2H]C1([2H])N(C)C([2H])([2H])C([2H])([2H])N(C2CCN(c3ccc(Nc4ncc(Cl)c(Nc5ccccc5P(C)(C)=O)n4)c(OC)c3)CC2)C1([2H])[2H] [Compound I-6, (2-((5-chloro-2-((2-methoxy-4-(4-(4-methyl[D8]piperazin-1-yl)piperidin-1-yl)phenyl)amino)pyrimidin-4-yl)amino)phenyl)dimethyl phosphorus oxide] | 9.99 ± 2.31 nM | 3.72 h | significantly prolong the half-life period | 31%
7 | [2H]C([2H])([2H])N1C([2H])([2H])CN(C2CCN(c3ccc(Nc4ncc(Cl)c(Nc5ccccc5P(C)(C)=O)n4)c(OC)c3)CC2)CC1([2H])[2H] [Compound I-7] | 9.89 ± 0.76 nM | 3.78 h | significantly prolong the half-life period | 34%
8 | [2H]C1([2H])CN(C2CCN(c3ccc(Nc4ncc(Cl)c(Nc5ccccc5P(C)(C)=O)n4)c(OC)c3)CC2)CC([2H])([2H])N1C [Compound I-9, (2-((5-chloro-2-((2-methoxy-4-(4-(4-methyl[3,3,5,5-D4]piperazin-1-yl)piperidin-1-yl)phenyl)amino)pyrimidin-4-yl)amino)phenyl)dimethyl phosphorus oxide] | 7.65 ± 1.07 nM | 3.57 h | – | 26%
9 | C[C@@H](Oc1cc(-c2cnn(C3CCNCC3)c2)cnc1N)c1c(Cl)ccc(F)c1Cl [Crizotinib, reference compound] | 11.1 ± 0.69 nM | – | – | –
